Assay results taken from ChEMBL document CHEMBL5291721, “A preclinical secondary pharmacology resource illuminates target-adverse drug reaction associations of marketed drugs” (Nat Commun, 2023).

Key:
[1] = target: T1, 5-hydroxytryptamine receptor 2C (Homo sapiens, UniProt P28335)
T1 sequence (P28335 whole entry): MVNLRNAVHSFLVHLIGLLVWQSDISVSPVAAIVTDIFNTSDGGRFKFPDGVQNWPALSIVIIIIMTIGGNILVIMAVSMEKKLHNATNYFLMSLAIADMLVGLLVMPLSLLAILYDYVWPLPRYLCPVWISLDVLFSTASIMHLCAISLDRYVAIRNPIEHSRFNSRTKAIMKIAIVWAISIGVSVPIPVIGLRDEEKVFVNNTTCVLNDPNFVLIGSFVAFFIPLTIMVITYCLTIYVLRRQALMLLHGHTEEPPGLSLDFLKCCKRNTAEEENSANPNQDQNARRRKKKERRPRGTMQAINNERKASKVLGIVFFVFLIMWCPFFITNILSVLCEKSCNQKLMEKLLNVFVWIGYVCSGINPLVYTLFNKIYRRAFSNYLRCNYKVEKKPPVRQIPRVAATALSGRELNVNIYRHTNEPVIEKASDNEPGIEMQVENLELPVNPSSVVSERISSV

[2] = target: T2, Gamma-aminobutyric acid receptor subunit alpha-1 (Rattus norvegicus, UniProt P62813)
T2 sequence (P62813 whole entry): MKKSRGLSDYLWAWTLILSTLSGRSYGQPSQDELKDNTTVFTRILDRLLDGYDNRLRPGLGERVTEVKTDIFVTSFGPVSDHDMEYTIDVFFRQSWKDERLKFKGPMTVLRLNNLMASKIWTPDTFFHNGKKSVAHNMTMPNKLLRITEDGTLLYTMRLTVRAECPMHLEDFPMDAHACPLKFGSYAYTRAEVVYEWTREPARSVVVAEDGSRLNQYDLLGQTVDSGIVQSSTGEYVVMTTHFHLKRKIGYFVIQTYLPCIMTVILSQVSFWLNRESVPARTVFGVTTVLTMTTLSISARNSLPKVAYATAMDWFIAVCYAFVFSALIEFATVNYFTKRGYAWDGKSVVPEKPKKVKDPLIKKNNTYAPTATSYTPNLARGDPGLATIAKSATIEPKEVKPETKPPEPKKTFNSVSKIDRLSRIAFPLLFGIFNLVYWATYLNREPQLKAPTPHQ

[3] = target: T3, Alpha-2C adrenergic receptor (Homo sapiens, UniProt P18825); format: functional
T3 sequence (P18825 whole entry): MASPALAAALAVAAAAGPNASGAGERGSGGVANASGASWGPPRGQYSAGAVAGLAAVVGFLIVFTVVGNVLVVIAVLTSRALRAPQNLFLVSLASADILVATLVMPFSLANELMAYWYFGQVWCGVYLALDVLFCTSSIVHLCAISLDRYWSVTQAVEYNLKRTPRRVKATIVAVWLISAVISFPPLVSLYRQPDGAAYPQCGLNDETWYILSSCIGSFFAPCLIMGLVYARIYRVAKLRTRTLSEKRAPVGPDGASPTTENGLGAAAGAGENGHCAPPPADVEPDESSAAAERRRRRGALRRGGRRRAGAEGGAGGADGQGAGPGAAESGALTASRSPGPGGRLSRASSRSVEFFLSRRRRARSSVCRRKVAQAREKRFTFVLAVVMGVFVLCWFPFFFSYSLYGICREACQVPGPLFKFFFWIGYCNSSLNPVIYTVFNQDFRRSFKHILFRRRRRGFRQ

[4] = target: T4, Alpha-2A adrenergic receptor (Homo sapiens, UniProt P08913); format: functional, cell-based
T4 sequence (P08913 whole entry): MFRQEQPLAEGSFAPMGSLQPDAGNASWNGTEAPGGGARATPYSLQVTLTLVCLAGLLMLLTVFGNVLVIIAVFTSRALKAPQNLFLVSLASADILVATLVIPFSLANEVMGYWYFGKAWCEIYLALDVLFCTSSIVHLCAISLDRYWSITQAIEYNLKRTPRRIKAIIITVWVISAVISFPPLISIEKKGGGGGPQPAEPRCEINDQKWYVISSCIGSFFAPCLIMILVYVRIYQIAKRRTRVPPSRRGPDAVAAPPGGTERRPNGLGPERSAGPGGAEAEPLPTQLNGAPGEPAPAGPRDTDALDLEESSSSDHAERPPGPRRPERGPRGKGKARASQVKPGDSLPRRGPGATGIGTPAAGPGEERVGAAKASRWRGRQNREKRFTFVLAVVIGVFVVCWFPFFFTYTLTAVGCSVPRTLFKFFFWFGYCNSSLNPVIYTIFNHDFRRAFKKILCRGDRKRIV

Vasopressin V1a receptor = Vasopressin V1a receptor (Homo sapiens, UniProt P37288)
Vasopressin V1a receptor, sequence (P37288 whole entry): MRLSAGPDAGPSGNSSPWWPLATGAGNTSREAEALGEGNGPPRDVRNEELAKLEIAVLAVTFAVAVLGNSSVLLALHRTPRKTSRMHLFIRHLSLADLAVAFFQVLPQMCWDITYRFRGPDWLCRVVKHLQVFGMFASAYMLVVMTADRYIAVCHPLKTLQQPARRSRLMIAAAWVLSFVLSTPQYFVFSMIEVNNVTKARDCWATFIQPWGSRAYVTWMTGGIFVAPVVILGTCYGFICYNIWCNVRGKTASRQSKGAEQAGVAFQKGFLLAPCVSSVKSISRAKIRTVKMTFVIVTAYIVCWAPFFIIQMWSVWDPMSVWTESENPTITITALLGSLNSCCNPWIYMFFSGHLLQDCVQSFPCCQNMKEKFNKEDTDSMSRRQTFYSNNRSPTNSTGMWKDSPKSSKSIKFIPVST

Motilin receptor = Motilin receptor (Homo sapiens, UniProt O43193)
Motilin receptor, sequence (O43193 whole entry): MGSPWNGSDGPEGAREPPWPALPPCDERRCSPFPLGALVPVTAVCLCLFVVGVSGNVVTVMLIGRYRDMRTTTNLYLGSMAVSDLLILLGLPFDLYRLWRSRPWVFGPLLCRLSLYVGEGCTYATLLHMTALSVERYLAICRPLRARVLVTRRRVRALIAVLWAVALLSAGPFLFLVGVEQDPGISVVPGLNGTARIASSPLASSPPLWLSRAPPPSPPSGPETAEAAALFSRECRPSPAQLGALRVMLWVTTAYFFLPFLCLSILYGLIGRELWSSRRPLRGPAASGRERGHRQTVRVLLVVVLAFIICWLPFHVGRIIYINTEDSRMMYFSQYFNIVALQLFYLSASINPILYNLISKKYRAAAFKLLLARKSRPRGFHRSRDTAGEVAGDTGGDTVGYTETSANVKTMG

Mu-type opioid receptor = Mu-type opioid receptor (Homo sapiens, UniProt P35372); experiment: biochemical; format: functional
Mu-type opioid receptor, sequence (P35372 whole entry): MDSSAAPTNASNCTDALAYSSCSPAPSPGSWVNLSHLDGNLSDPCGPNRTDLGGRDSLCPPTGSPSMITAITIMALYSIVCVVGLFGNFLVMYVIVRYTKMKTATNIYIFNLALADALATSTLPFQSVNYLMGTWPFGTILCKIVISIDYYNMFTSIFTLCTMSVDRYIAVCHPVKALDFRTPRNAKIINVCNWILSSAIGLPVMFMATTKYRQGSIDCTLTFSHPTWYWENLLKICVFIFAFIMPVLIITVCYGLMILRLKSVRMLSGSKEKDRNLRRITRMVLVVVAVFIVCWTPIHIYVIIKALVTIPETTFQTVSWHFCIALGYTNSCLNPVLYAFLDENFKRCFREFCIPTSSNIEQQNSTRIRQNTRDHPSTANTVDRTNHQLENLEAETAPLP

[5] = target: T5, Alpha-1A adrenergic receptor (Homo sapiens, UniProt P35348); format: functional, cell-based
T5 sequence (P35348 whole entry): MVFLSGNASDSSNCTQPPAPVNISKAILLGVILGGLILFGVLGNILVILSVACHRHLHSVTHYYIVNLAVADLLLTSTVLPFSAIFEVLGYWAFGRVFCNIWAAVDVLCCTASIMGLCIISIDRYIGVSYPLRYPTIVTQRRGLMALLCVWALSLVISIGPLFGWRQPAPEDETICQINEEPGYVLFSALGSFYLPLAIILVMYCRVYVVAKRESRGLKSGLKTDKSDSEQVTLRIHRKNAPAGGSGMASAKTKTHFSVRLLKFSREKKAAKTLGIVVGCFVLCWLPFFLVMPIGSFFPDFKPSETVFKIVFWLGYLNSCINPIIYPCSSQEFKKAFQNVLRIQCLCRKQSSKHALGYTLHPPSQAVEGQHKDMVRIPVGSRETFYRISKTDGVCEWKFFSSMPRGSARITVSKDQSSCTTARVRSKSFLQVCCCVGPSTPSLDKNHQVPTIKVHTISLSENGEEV

Glucocorticoid receptor = target: T6, Glucocorticoid receptor (Homo sapiens, UniProt P04150)
T6 sequence (P04150 whole entry): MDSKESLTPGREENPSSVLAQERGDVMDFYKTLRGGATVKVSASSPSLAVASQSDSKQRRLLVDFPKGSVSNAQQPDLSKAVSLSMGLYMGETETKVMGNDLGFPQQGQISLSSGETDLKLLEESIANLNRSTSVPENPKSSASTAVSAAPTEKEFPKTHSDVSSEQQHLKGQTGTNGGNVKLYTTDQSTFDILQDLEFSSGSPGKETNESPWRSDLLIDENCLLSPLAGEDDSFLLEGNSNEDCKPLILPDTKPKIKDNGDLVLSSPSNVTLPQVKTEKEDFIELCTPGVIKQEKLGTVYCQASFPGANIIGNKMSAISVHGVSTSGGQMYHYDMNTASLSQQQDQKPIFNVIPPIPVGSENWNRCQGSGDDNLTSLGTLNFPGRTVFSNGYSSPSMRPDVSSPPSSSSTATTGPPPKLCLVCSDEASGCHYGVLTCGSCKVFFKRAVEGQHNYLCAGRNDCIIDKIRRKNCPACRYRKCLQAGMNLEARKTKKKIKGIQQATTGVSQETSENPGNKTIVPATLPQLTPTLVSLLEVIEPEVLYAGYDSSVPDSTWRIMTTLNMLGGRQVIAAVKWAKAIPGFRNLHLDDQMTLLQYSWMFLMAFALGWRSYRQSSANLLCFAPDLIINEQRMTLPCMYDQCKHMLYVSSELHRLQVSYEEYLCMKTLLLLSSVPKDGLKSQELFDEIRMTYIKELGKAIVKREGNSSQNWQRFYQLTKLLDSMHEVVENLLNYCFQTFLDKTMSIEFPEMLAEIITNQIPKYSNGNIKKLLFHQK

[6] = target: T2, Gamma-aminobutyric acid receptor subunit alpha-1; format: functional
Note: assay procedure not described here.

SMILES	AC50 [1] [µM]	AC50 [2] [µM]	AC50 [3] [µM]	AC50 [4] [µM]	AC50 (Vasopressin V1a receptor) [µM]	AC50 (Motilin receptor) [µM]	AC50 (Mu-type opioid receptor) [µM]	AC50 [5] [µM]	AC50 (Glucocorticoid receptor) [µM]	AC50 [6] [µM]
CC1=C(C)C(=O)C(C(CCCCCC(=O)O)c2ccccc2)=C(C)C1=O (stereo not given) [SERATRODAST]	> 30	> 30	> 30	> 30	> 30	> 30	> 30	> 30	> 30	> 30
CCC(COC(=O)c1cc(OC)c(OC)c(OC)c1)(c1ccccc1)N(C)C (stereo not given) [TRIMEBUTINE]	> 30	> 30	> 30	> 30	> 30	> 30	0.2	> 30	> 30	> 30
CCN(CC)C(=O)Nc1ccc(OCC(O)CNC(C)(C)C)c(C(C)=O)c1 (stereo not given) [CELIPROLOL]	> 30	> 30	> 30	> 30	> 30	> 30	> 30	> 30	> 30	> 30
CCOC(=O)O[C@]1(C(=O)OCCl)CC[C@H]2[C@@H]3CCC4=CC(=O)C=C[C@]4(C)[C@H]3[C@@H](O)C[C@@]21C [LOTEPREDNOL ETABONATE]	> 30	> 30	> 30	> 30	> 30	> 30	> 30	> 30	0.0056	> 30
